Results from PMC12567096, “An Efficacy- and In Vivo Exposure-Oriented Integrated Study to Investigate the Effective Components of Qishen Granule” (Pharmaceuticals, 2025).
Like-named read-outs stand apart in the source and are kept apart here.

Legend:
[1] = rat, in vivo
Procedure: (§2) Ion source parameters were set as follows: temperatures of drying gas and sheath gas were 300 °C and 300 °C, flow rates of drying gas and sheath gas were 7 L/min and 11 L/min, the nebulizer was set at 35 psig, capillary voltage was 3500 V (−), and nozzle voltage was 2000 V (−). […] Chromatographic separations were conducted on a ZORBAX Eclipse Plus C18 column (3.0 × 50 mm, 1.8 μm, Agilent Technologies, California, USA). The mobile phase was composed of 0.1% aqueous FA (A, (v/v)) and 0.1% formic acid methanol (B), the flow rate was set at 0.5 mL/min, and the column oven was maintained at 40 °C.
(§3) Protein precipitation was carried out for each time point for plasma samples, calibration samples, or QC samples by introducing four volumes of acetonitrile containing 400 ng/mL of icariin. Then, 10 μL 10% aqueous ascorbic acid (v/v) was spiked into each sample to prevent the oxidation of phenolic compounds. […] An aliquot (450 μL) of the supernatant was transferred and dried under nitrogen vacuum.
(§4) The pharmacokinetic parameters were calculated by DAS software (version 2.0) for a non-compartmental analysis.

H9c2 cells = test: Cytotoxicity on H9c2 cells (CCK-8); format: cell-based, rat; settings: for Inhibition rate: H9c2 cells, n=3
Procedure: (§1) Rat myocardial H9c2 cells (purchased from China Infrastructure of Cell Line Resources, Institute of Basic Medical Sciences, Chinese Academy of Medical Sciences) were cultured in DMEM supplemented with 10% fetal bovine serum (FBS), Penicillin (100 U/mL), and Streptomycin (100 μg/mL) at 37 °C under a humidified atmosphere of 5% CO2 and 95% air. For OGD/R treatment, H9c2 cells were cultured in glucose-free DMEM under hypoxic conditions (95%N2 + 5%CO2) for 4 h at 37 °C followed by complete medium under normal conditions with air (95%) and CO2 (5%) for 2 h. A control group was maintained under normal culture conditions (with glucose-containing DMEM and 5% CO2) without undergoing OGD/R treatment. CCK8 was used to assess cell viability. After treatment, H9c2 cells were seeded in 96-well plates, with each well supplemented with 10 μL of CCK-8 solution and then incubated for 1 h. Finally, the absorbance at 450 nm was detected by a microplate reader (Model […] 200 PRO, TECAN, Grodig, Austria).
When evaluating the cytotoxicities of the absorbed compounds, the H9c2 cells were seeded in 96-well plates at a density of 1 × 10^4 cells/well; when cells reached 80% confluence, […] Afterward, the protective effects were verified by assessing the cell viability when treating with different concentrations (1, 10, 25, 50, and 100 μM) of the analytes prior to OGD/R treatment.

OGD/R-induced H9c2 cells = test: Protective effect on OGD/R-induced H9c2 cells (CCK-8 cell viability); format: cell-based, rat; settings: 1, 10, 25, 50 and 100 μM prior to OGD/R, vs model group
Procedure: as §1
When evaluating the cytotoxicities of the absorbed compounds, the H9c2 cells were seeded in 96-well plates at a density of 1 × 10^4 cells/well; when cells reached 80% confluence, they were treated with 25 and 50 μM of the 24 analytes to screen the non-toxic concentration ranges. Afterward, the protective effects were verified by assessing the cell viability when treating with different concentrations (1, 10, 25, 50, and 100 μM) of the analytes prior to OGD/R treatment.

[2] = Concentrations of 24 analytes in QSG treated plasma (Table S5); settings: QSG treated plasma, n = 5
[3] = Pharmacokinetic study in rats after oral administration of QSG
Procedure: as §2, §3, §4

[4] = rat plasma, single oral 7 g/kg QSG, n = 6

O=c1cc(-c2ccc(O)c(O)c2)oc2cc(O[C@@H]3O[C@H](CO)[C@@H](O)[C@H](O)[C@H]3O)cc(O)c12 [Luteoloside]
Oral relative bioavailability [1]: 0.019% | AUC0→∞ ([1]; po): 20.86 ng·h/mL | Shape of the plasma concentration–time curve (in words) ([1]; po): Double peaks | AUC0→t ([1]; po, 7 g/kg): 12.39 ± 2.708 ng·h/mL | AUC0→∞ ([1]; po, 7 g/kg): 20.86 ± 6.586 ng·h/mL | T1/2 ([1]; po, 7 g/kg): 21.76 ± 16.85 h | Inhibition rate (H9c2 cells; 25 μM): -4.2 ± 4.7% | Inhibition rate (H9c2 cells; 50 μM): 8.1 ± 5.7% | Inhibition rate (H9c2 cells; 100 μM): 4.1 ± 1.7% | H9c2 cell survival after OGD/R (in words) (OGD/R-induced H9c2 cells): significantly improve H9c2 cell survival rates

Salvianolic acid B
Concentration ([2]; 0.08 h): 68.337 ± 49.223 ng/mL | Concentration ([2]; 0.17 h): 115.490 ± 60.235 ng/mL | Concentration ([2]; 0.5 h): 174.763 ± 84.875 ng/mL | Concentration ([2]; 1 h): 83.989 ± 21.934 ng/mL | Concentration ([2]; 2 h): 47.989 ± 9.996 ng/mL | Concentration ([2]; 4 h): 34.225 ± 16.349 ng/mL | Concentration ([2]; 8 h): 91.217 ± 8.136 ng/mL | Concentration ([2]; 12 h): 56.609 ± 10.151 ng/mL | Inhibition rate (H9c2 cells; 25 μM): -38.9 ± 5.2% | Inhibition rate (H9c2 cells; 50 μM): -17.1 ± 7.2% | Inhibition rate (H9c2 cells; 100 μM): 0.1 ± 3.2% | Effect on H9c2 cell viability / cytotoxicity (in words) (H9c2 cells; CCK-8, compared to the control group): significantly enhanced cell viabilities | H9c2 cell survival after OGD/R (in words) (OGD/R-induced H9c2 cells): significantly improve H9c2 cell survival rates | AUC0→∞ ([3]; Table S12, rats, oral QSG): 2176 ng·h/mL | AUCi ([3]; exposure (AUC0→∞) of the component in rats after oral QSG, as used for ECI): 2176 | Oral relative bioavailability ([3]; exposure level (AUC0→∞) compared with the dosage of each compound in QSG): 0.013% | Absorption efficiency / bioavailability (in words) ([3]; from Table S12, rats, oral QSG): much lower than most compounds | AUC0→t [3, 4]: 1475 ± 187.4 ng·h/mL | AUC0→∞ [3, 4]: 2176 ± 842.3 ng·h/mL | Cmax [3, 4]: 205.3 ± 65.50 ng/mL | MRT [3, 4]: 11.08 ± 1.809 h | T1/2 [3, 4]: 10.83 ± 5.740 h | Tmax [3, 4]: 0.566 ± 0.182 h | MRT ([3]; rat plasma, single oral 7 g/kg QSG, n = 6, listed as salvianolic acid B): more than 10 h | Shape of the plasma concentration–time curve (in words) ([3]; rats, oral QSG): Double peaks | Share of the total exposures (AUC0→∞) of all analytes ([3]; rats, oral QSG, 11 analytes): 43.48%
